Structures are written as SMILES.

For series [1] the following is noted: in vivo; cited from earlier work.
For series [2] the following is noted: in vivo; cited from earlier work. This is another data set of the same source.
Series [3] relates to normotensive Wistar rats. Description: Effect of oral Adb111 (AMP complex) on blood pressure of normotensive Wistar rats and comparison with AMP. It counts as in vivo, rat. As for the experimental part:
The experiment was performed in 10 male Wistar rats (340 to 410 g; 5 in the treated group and 5 in the control group). Animals were maintained for two weeks of adaptation in humidity and temperature controlled room and were fed a standard diet (U.A.R, Villemoisson, France). Each animal, (control or treated) was anaesthetized with sodium pentobarbital (6%, 0.9 ml/Kg body weight). The left carotid artery was cannulated with a PE50 polyethylene catheter connected to a pressure transducer (MacLabs, ADInstruments, Hastings, UK). Blood pressure was monitored continuously and recorded. […]
(§1) The experiment is similar to example 3.

For series [4], the system named is normotensive Wistar rats. Put plainly: Effect of oral and IV 330A1 on blood pressure of normotensive Wistar rats. The class given is in vivo, rat. As for the experimental part: (§2) The experiment was performed in 10 male Wistar rats (340 to 410 g; 5 in the treated group and 5 in the control group). Animals were maintained for two weeks of adaptation in humidity and temperature controlled room and were fed a standard diet (U.A.R, Villemoisson, France). Each animal, (control or treated) was anaesthetized with sodium pentobarbital (6%, 0.9 ml/Kg body weight). The left carotid artery was cannulated with a PE50 polyethylene catheter connected to a pressure transducer (MacLabs, ADInstruments, Hastings, UK). Blood pressure was monitored continuously and recorded. Adb011 was administered orally by gavage at the dose of 50 mg/kg (in Arabic syrup 5%).
as §1
• 330A1-I (n=4): receiving by gavage the product (50 mg/kg in suspension with Arabic syrup 30 mg/ml) • Control-(n=4)I: receiving by gavage Arabic syrup 30 mg/ml alone • 330A1-II: receiving the product IV (10 mg/kg in suspension with distilled water 30 mg/ml) • Control-II (n=4): receiving IV distilled water

The test system of a further series is rats. Description: Effects of Adb011 by the IV route on systemic arterial pressure in rats. It counts as in vivo, rat. The conditions noted are these: 10 mg/kg IV bolus. As for the experimental part:
as §2, §1
• Adb-011 (n=4): receiving IV a bolus of Adb-011 (10 mg/kg in suspension with distilled water 30 mg/ml) • Control (n=3): receiving IV (distilled water)
In the treated group, blood pressure began to decrease after 15 min of the Adb011 administration and reached a significant maximal decrease of 48 mmHg at […].

Series [5] has as its system normotensive Wistar rats. Put plainly: Effect of oral administration of Adb011 on blood pressure of normotensive Wistar rats. The class given is in vivo, rat. The protocol:
as §2
Results are reported as mean±SEM of n experiments. Multiple measurement analysis was performed using ANOVA, followed by Bonferroni-Dunn test. Statistical significance was accepted for p values less than 0.05.
Blood pressure began to decrease after 30 minutes of Adb-011 administration. It reached a significant maximal decrease of −13.9 mmHg between 70 and 100 min. (with respect to vehicle values, p<0.05 ANOVA multiple measurement analysis followed by a Bonferroni-Dunn test) and returned to normal after 110-120 minutes.

The test system of the next series is hypoxic rats. Description: Effect of oral Adb011 on chronic pulmonary hypertension caused by hypoxia in rats. The class given is in vivo, rat. The protocol:
Animals were divided in three groups: • Adb-011 chronic treatment (n=5): receiving by gavage Adb-011 (50 mg/kg in suspension with Arabic syrup, 20 mg/ml) twice a day (morning and evening) for 14 days. • Control (n=6): receiving by gavage vehicle (suspension of Arabic syrup 20 mg/kg). • Adb-011 acute treatment (n=6): receiving by gavage vehicle for 14 days and orally treated with a single dose of Adb-011 on the last day (day of surgery). Rats were placed in a chamber where air was circulated at a pressure of 380 Torr, which corresponds to an altitude of 5500 meters. The chamber was open twice a day for ˜30 minutes to treat animals and to replace food and water. On the day of surgery the animals were removed from the chamber and anesthetized with pentobarbital sodium (60 mg/kg ip). A polyethylene catheter (PE-50) was placed in the aortic arch via the left carotid artery. An introducer was advanced in the right ventricle via the right jugular vein. Adequate placement of both catheters was established by the pressure waveform. Both catheters were connected to a pressure transducer (Biopac MP30, BIOPAC Systems, Inc.). The time-lag between last dose of Adb-011 (in group 1) and blood pressure measurement was 14 hours.

Where [6] appears, read: oral administration, conclusion over doses.
Setting [7] is: 50 mg/kg p.o. twice a day for 14 days, chronic hypoxia.
[8] abbreviates: HxC + A 15 min: single oral dose on day of surgery.
[9] abbreviates: HxC + A 60 min: single oral dose on day of surgery, 60 min.

Regarding `Nc1ncnc2c1ncn2[C@@H]1O[C@H](CO)[C@@H](O)[C@H]1O` [adenosine], the plasma half-life result in series [1] is “less than 5 seconds”.

Take `Nc1ncnc2c1ncn2[C@@H]1O[C@H](COP(=O)(O)O)[C@@H](O)[C@H]1O` [AMP, adenosine monophosphate, reference compound]: the gastrointestinal bioavailability entry in series [2] is “poor”. Moreover, in the series with normotensive Wistar rats [3] (100 mg/kg by gavage), the “time after administration at which blood pressure began to decrease” value (“time after administration … to decrease” for short) turned out to be 45 min and the “time after which blood pressure returned to normal values” (“time … to normal values” for short) turned out to be 120 min. In the series with normotensive Wistar rats [3] (300 mg/kg by gavage), the “time after administration … to decrease” value was determined as 45 min and the “time … to normal values” was 120 min. The “time for which blood pressure was lowered” value in the series with normotensive Wistar rats [3] (setting [6]) came out at 60 min.

On to `CC(=O)Nc1ccc(C(=O)O)cc1.CC(O)CN(C)C` [330A1], for which the “effect on mean arterial blood pressure” value in the series on normotensive Wistar rats [4] (10 mg/kg IV) and in the series on normotensive Wistar rats [4] (50 mg/kg by gavage) was “minor effect” each time.

As to `CC(=O)Nc1ccc(C(=O)O)cc1.CC(=O)Nc1ccc(C(=O)O)cc1.CC(=O)Nc1ccc(C(=O)O)cc1.CC(O)CN(C)C.CC(O)CN(C)C.CC(O)CN(C)C.Nc1ncnc2c1ncn2[C@@H]1O[C@H](COP(=O)(O)O)[C@@H](O)[C@H]1O` [Adb111], in the series on normotensive Wistar rats [3] (100 mg/kg by gavage), the “time after administration … to decrease” value is on record as 45 min and the “time … to normal values” was found to be 180 min. In the series on normotensive Wistar rats [3] (300 mg/kg by gavage), the “time after administration … to decrease” value turned out to be 45 min and the “time … to normal values” is recorded as 180 min. In the series on normotensive Wistar rats [3] (setting [6]), the “time after oral administration at which blood pressure lowering began” value came out at 45 min and the “time for which blood pressure was lowered” value is recorded as “up to 165 min”. Besides, in the series with normotensive Wistar rats [3] (oral, comparable doses), the “bioavailability and efficacy compared with natural AMP” value is “better bioavailabity and efficacy over natural AMP”.

Take `CC(=O)Nc1ccc(C(=O)O)cc1.CC(=O)Nc1ccc(C(=O)O)cc1.CC(=O)Nc1ccc(C(=O)O)cc1.CC(O)CN(C)C.CC(O)CN(C)C.CC(O)CN(C)C.Nc1ncnc2c1ncn2[C@@H]1O[C@H](CO)[C@@H](O)[C@H]1O` [Adb011]: in the series on rats, the “maximal decrease of blood pressure” value is listed as 48 mmHg, the “mean arterial blood pressure two hours after injection” value was “still very low two hours after injection”, the “time after administration … to decrease” value came to 15 min and the “time of maximal decrease of blood pressure” value was 15 min. The “time after which blood pressure returned to normal” value in the series on normotensive Wistar rats [5] (50 mg/kg p.o.) was in the range of 110 to 120 min. Moreover, the “time after administration … to decrease” value in the series with normotensive Wistar rats [5] (50 mg/kg p.o. by gavage, anaesthetized rats) was found to be 30 min. For the same molecule, in the series on normotensive Wistar rats [5] (50 mg/kg p.o., with respect to vehicle values, p<0.05), the “maximal decrease of blood pressure” value is given as −13.9 mmHg. For the same molecule, in the series with hypoxic rats (setting [7]), the “change of right ventricular hypertrophy” value was -75 mg, the “decrease of pulmonary hypertension” value came out at 21.5 mmHg and the “effect on systemic pressure” value was “no effect”. In addition, in the series with hypoxic rats (HxA: chronic treatment 50 mg/kg p.o. twice a day 14 days, measured 14 h after last dose), the “RVp (right ventricular pressure)” value amounted to 53.30 ± 461 mmHg. Also, in the series with hypoxic rats (HxA: chronic treatment 14 days), the “(LV + S)w (left ventricular + septum weight)” value is reported as 729 ± 56, the “C(a − v)O2 (arterial − venous O2 difference)” value was found to be 8.0 ± 0.4 mL O2/dL blood, the “CaO2 (arterial O2 content)” value was 29.2 ± 0.9 mL O2/dL of blood and the Cardiac output worked out at 162 ± 8 mL/min/kg. Besides, in the series with hypoxic rats (HxA: chronic treatment 14 days), the “CvO2 (venous O2 content)” value is 21.2 ± 1.0 mL O2/dL of blood, the “HR (heart rate)” value is 364 ± 15 beat/min, the “MABP (mean arterial blood pressure)” value was 113 ± 2 mmHg and the “RVw (right ventricular weight)” value is 362 ± 10 mg. Also, in the series with hypoxic rats (HxA: chronic treatment 14 days), the “SV (stroke volume)” value is listed as 0.45 ± 0.02 mL/kg, the “SVR (systemic vascular resistance)” value is 0.70 ± 0.03, the “SaO2 (arterial oxygen saturation)” value is 92 ± 1 % and the “VO2 (oxygen consumption)” value is on record as 12.81 ± 0.29 mL/min/kg. In the series on hypoxic rats (setting [8]), the “(LV + S)w (left ventricular + septum weight)” value worked out at 675 ± 21, the “C(a − v)O2 (arterial − venous O2 difference)” value came to 8.3 ± 0.5 mL O2/dL blood, the “CaO2 (arterial O2 content)” value was 27.3 ± 1.4 mL O2/dL of blood and the Cardiac output was 164 ± 11 mL/min/kg. Further, in the series on hypoxic rats (setting [8]), the “CvO2 (venous O2 content)” value is on record as 19.0 ± 1.5 mL O2/dL of blood, the “HR (heart rate)” value stood at 352 ± 12 beat/min, the “MABP (mean arterial blood pressure)” value is on record as 107 ± 5 mmHg and the “RVw (right ventricular weight)” value stood at 436 ± 21 mg. In the series on hypoxic rats (setting [8]), the “SV (stroke volume)” value is listed as 0.47 ± 0.03 mL/kg, the “SVR (systemic vascular resistance)” value was found to be 0.68 ± 0.06, the “SaO2 (arterial oxygen saturation)” value came to 82 ± 4% and the “VO2 (oxygen consumption)” value stood at 13.38 ± 0.61 mL/min/kg. Further, in the series on hypoxic rats (HxC + A 15 min: single oral dose on day of surgery, 15 min), the “RVp (right ventricular pressure)” value was determined as 75.17 ± 0.95 mmHg. For the same molecule, in the series with hypoxic rats (setting [9]), the “HR (heart rate)” value came to 329 ± 4 beat/min, the “MABP (mean arterial blood pressure)” value amounted to 92 ± 5 mmHg and the “RVp (right ventricular pressure)” value is on record as 52.83 ± 3.83 mmHg. Further, the “reduction of pulmonary artery pressure” value in the series with hypoxic rats (acute single oral dose, rats with fixed pulmonary hypertension) is listed as −22 mmHg.

Values taken from patent publication US7585850B2 (Adenobio N.V., priority 2005, dated 2009).
